{"source": "patent US4761398A", "about": "“Method of inducing birds to molt” (Embrex, Inc., priority 1986, dated 1988)", "origin": "cited, not measured here", "note": "Where no end group is shown, it is not given here.", "data": [{"molecular_target": "T1, LHRH receptor (Homo sapiens, UniProt P30968)", "T1 sequence (P30968 1-328)": "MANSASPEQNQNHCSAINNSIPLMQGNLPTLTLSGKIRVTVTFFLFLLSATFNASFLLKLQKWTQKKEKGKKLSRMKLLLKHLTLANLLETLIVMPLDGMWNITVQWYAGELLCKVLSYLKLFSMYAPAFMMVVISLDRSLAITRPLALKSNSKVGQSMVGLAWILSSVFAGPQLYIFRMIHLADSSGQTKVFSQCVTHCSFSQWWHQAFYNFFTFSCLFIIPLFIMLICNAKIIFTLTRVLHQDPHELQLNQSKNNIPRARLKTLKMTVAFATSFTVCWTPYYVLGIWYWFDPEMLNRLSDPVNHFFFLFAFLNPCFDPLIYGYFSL", "settings": "6-substituted analogs, Nestor et al.; cited from earlier work", "values": [{"substance": "[D-Cha^6 ]LHRH", "potency relative to LHRH": "more potent than LHRH"}, {"substance": "[D-Dca^6 ]LHRH", "potency relative to LHRH": "more potent than LHRH"}, {"substance": "[D-Mtf^6 ]LHRH", "potency relative to LHRH": "more potent than LHRH"}, {"substance": "[D-Nal(1)^6 ]LHRH", "potency relative to LHRH": "more potent than LHRH"}, {"substance": "[D-Nal(2)^6 ]LHRH", "potency relative to LHRH": "more potent than LHRH"}, {"substance": "[D-Pfp^6 ]LHRH", "potency relative to LHRH": "more potent than LHRH"}, {"substance": "[D-Tmo^6 ]LHRH", "potency relative to LHRH": "more potent than LHRH"}, {"substance": "[D-Tmp^6 ]LHRH", "potency relative to LHRH": "more potent than LHRH"}, {"substance": "[D-Trp^6, Pro^9 -NHEt]LHRH", "potency relative to LHRH": "more potent than LHRH"}, {"substance": "[D-ptf^6 ]LHRH", "potency relative to LHRH": "more potent than LHRH"}]}, {"molecular_target": "T1, LHRH receptor", "settings": "Nestor et al.; cited from earlier work", "values": [{"substance": "[D-Dca^6 ]LHRH", "agonistic activity in words": "activity dropped off"}, {"substance": "[D-Nal(2)^6 ], aza-Gly^10 ]LHRH", "agonistic activity in words": "one of the most potent LHRH agonists known"}]}, {"molecular_target": "T1, LHRH receptor", "settings": "literature review; cited from earlier work", "values": [{"substance": "Leu^3 -LHRH (QHLSYGLRPG; ends and bridges not checked; UniProt P01148 24-33, looked up, variant W3L)", "antagonistic activity": "some antagonistic activity"}, {"substance": "[desHis^2, D-Ala^6 ] LHRH", "antagonistic activity": "found to have antagonistic activity"}, {"substance": "[desHis^2, D-Ala^6, desGly^10 ] LHRHEA", "agonistic activity of antagonist analogs": "showed some agonistic activity", "antagonistic activity": "found to have antagonistic activity"}, {"substance": "[desHis^2, D-Phe^6 ]LHRH", "antagonistic activity": "increased antagonistic activity"}, {"substance": "[desHis^2, Leu^3, D-Ala^6, desGly^10 ] LHRHEA", "agonistic activity of antagonist analogs": "showed some agonistic activity", "antagonistic activity": "found to have antagonistic activity"}, {"substance": "[desHis^2, Leu^3, desGly^10 ] LHRHEA", "antagonistic activity": "found to have antagonistic activity"}, {"substance": "[desHis^2, desGly^10 ] LHRHEA", "antagonistic activity": "significant antagonistic activity"}]}]}
